Measured values: the NIST ThermoML archive (doi:10.1016/j.fluid.2017.06.018)

How the values were obtained:
[1] = refractive index (Na D-line) (dimensionless); xn = mol fraction of the nth substance listed; conditions: 100 kPa, Liquid, Standard Abbe refractometry
[2] = xn = mol fraction of the nth substance listed; conditions: 100 kPa, Liquid; for viscosity: Falling or rolling sphere viscometry; for mass density: Vibrating tube method

NCCNCCO [N-(2-aminoethyl)ethanolamine] + NCCO
Conditions	mass density, 298.15 K [kg/m3]	mass density, 303.15 K [kg/m3]	mass density, 308.15 K [kg/m3]	refractive index, 298.15 K	refractive index, 303.15 K	refractive index, 308.15 K	viscosity, 298.15 K [mPa·s]	viscosity, 303.15 K [mPa·s]	viscosity, 308.15 K [mPa·s]
[1], x2 = 0	–	–	–	1.4843	1.4827	1.4811	–	–	–
[1], x2 = 0.1005	–	–	–	1.4824	1.481	1.4796	–	–	–
[1], x2 = 0.1993	–	–	–	1.4799	1.4785	1.4771	–	–	–
[1], x2 = 0.299	–	–	–	1.4774	1.476	1.4745	–	–	–
[1], x2 = 0.4047	–	–	–	1.4742	1.4728	1.4715	–	–	–
[1], x2 = 0.5033	–	–	–	1.4714	1.47	1.4685	–	–	–
[1], x2 = 0.5985	–	–	–	1.4683	1.4668	1.4652	–	–	–
[1], x2 = 0.6981	–	–	–	1.4647	1.4633	1.462	–	–	–
[1], x2 = 0.7985	–	–	–	1.4611	1.4598	1.4585	–	–	–
[1], x2 = 0.8996	–	–	–	1.4573	1.4559	1.4545	–	–	–
[2], x2 = 0	1025.8	1021.3	1016.3	–	–	–	98.62	70.57	53.11
[2], x2 = 0.1072	1025.7	1021.4	1016.6	–	–	–	95.09	69.25	52.77
[2], x2 = 0.2634	1025.2	1020.9	1016.2	–	–	–	90.58	67.59	52.68
[2], x2 = 0.4233	1024.4	1020.2	1015.7	–	–	–	78.29	59.5	46.92
[2], x2 = 0.5481	1023.4	1019.3	1014.9	–	–	–	64.72	48.92	38.49
[2], x2 = 0.6305	1022.5	1018.4	1014.1	–	–	–	53.12	39.84	31.01
[2], x2 = 0.6851	1021.7	1017.6	1013.4	–	–	–	44.75	32.81	25.15
[2], x2 = 0.7988	1019.4	1015.5	1011.4	–	–	–	27.93	20.04	14.71
[2], x2 = 0.8459	1018.2	1014.3	1010.3	–	–	–	22.36	15.94	11.31
[2], x2 = 0.9377	1015.2	1011.4	1007.5	–	–	–	17.18	12.82	9.55

NCCNCCN [di(2-aminoethyl)amine] + NCCO
Conditions	mass density, 298.15 K [kg/m3]	mass density, 303.15 K [kg/m3]	mass density, 308.15 K [kg/m3]	refractive index, 298.15 K	refractive index, 303.15 K	refractive index, 308.15 K	viscosity, 298.15 K [mPa·s]	viscosity, 303.15 K [mPa·s]	viscosity, 308.15 K [mPa·s]
[1], x2 = 0	–	–	–	1.4822	1.4808	1.4793	–	–	–
[1], x2 = 0.0989	–	–	–	1.4815	1.4802	1.4791	–	–	–
[1], x2 = 0.2021	–	–	–	1.4806	1.4791	1.4778	–	–	–
[1], x2 = 0.3013	–	–	–	1.4794	1.4778	1.4765	–	–	–
[1], x2 = 0.4007	–	–	–	1.4778	1.4764	1.4752	–	–	–
[1], x2 = 0.4984	–	–	–	1.4758	1.4743	1.4729	–	–	–
[1], x2 = 0.6007	–	–	–	1.4731	1.4717	1.4703	–	–	–
[1], x2 = 0.7027	–	–	–	1.4696	1.4683	1.467	–	–	–
[1], x2 = 0.8002	–	–	–	1.4657	1.4643	1.4631	–	–	–
[1], x2 = 0.8987	–	–	–	1.4608	1.4591	1.4577	–	–	–
[2], x2 = 0	945.8	942.1	937.8	–	–	–	5.63	4.5	3.85
[2], x2 = 0.1619	956.5	953.1	949.1	–	–	–	8.28	6.59	5.38
[2], x2 = 0.2973	964.6	961.1	957.1	–	–	–	10.37	8.33	6.68
[2], x2 = 0.4258	972.6	969	965.3	–	–	–	12.15	9.76	7.8
[2], x2 = 0.5307	979.4	975.9	972.3	–	–	–	13.87	11.18	8.89
[2], x2 = 0.6308	986.3	982.8	979.2	–	–	–	15.47	12.48	9.99
[2], x2 = 0.7174	992.7	989.2	985.6	–	–	–	16.82	13.6	10.89
[2], x2 = 0.798	998.7	995.5	992	–	–	–	18.22	14.73	11.84
[2], x2 = 0.879	1005.1	1001.7	998.5	–	–	–	19.23	15.49	12.42
[2], x2 = 0.9336	1008.9	1005.6	1002.4	–	–	–	19.31	15.49	12.34
